The values below come from patent US20050240034A1, “Artemisinin-based peroxide compounds as broad spectrum anti-infective agents” (priority 2002, published 2005).

The structures appear in SMILES notation. Where two headings read alike, the source gives them in different places.

The test deals with Leishmania donovani promastigotes expressing firefly luciferase. Briefly: antileishmanial luciferase assay on transgenic promastigotes. Type of test: cell-based. On the procedure:
Antileishmanial activity of the compounds was tested on a transgenic cell line of Leishmania donovani promastigotes expressing firefly luciferase.^29a In a 96 well microplate assay, compounds with appropriate dilution were added to the leishmania promastigotes culture (2×10^6 cell/mL). The plates were incubated at 26° C. for 72 hours and growth of leishmania promastigotes was determined by luciferase assay with Steady Glo® reagent (Promega, USA). Pentamidine and Amphotericin B were used as standard antileishmanial agents. The analogues were simultaneously tested for cytotoxicity on VERO cells (monkey kidney fibroblast) by Neutral Red assay.^29b IC50 values for the compounds were computed from the growth inhibition curve.

Setting [1] is: Table 3 (continues Table 1), read-out: Antileishmanial activity IC50.
Where [2] appears, read: Table 1 (artemisinin analogues), NA = not active up to 125 μg/ml, read-out: Antileishmanial activity IC50.
Setting [3] is: Table 4, NA = not active up to 125 μg/ml, read-out: IC50.

Broadly, the IC50 is the concentration that gives 50% inhibition. As to `C[C@@H]1[C@H](O)[C@@H](C)/C=C/C=C/C=C/C=C/C=C/C=C/C=C/[C@H](O[C@@H]2O[C@H](C)[C@@H](O)[C@H](N)[C@@H]2O)C[C@@H]2O[C@](O)(C[C@@H](O)C[C@@H](O)[C@H](O)CC[C@@H](O)C[C@@H](O)CC(=O)O[C@H]1C)C[C@H](O)[C@H]2C(=O)O` [Amphotericin B, reference compound], the IC50 under setting [1] was determined as 0.01 µM.
Take `CC1CCC2CC(=O)OC3OC4(C)CCC1C23OO4` (centres unmarked) [Compound 60]: under setting [2], the IC50 was determined as 242 µM.
Still for that read-out and setting: the same measure for `CC1CCC2C(C)(C)C(=O)OC3OC4(C)CCC1C32OO4` (centres unmarked) [Compound 62]: 101 µM; for `CCCC1C(=O)OC2OC3(C)CCC4C(C)CCC1C24OO3` (centres unmarked) [Compound 63]: 16.8 µM; for `C=CCC1C(=O)OC2OC3(C)CCC4C(C)CCC1C24OO3` (centres unmarked) [Compound 64]: 17.8 µM.
As to `CCCCC1C(=O)OC2OC3(C)CCC4C(C)CCC1C24OO3` (centres unmarked) [Compound 65], the IC50 under setting [2] turned out to be 12.3 µM.
As for `CC1CCC2C(CCCCc3ccccc3)C(=O)OC3OC4(C)CCC1C32OO4` (centres unmarked) [Compound 70], the IC50 under setting [2] stood at 7.5 µM.
On the same count and under the same terms, the figure for `CC1CCC2C(CCCc3cccc(F)c3)C(=O)OC3OC4(C)CCC1C32OO4` (centres unmarked) [Compound 71] is 3.7 µM; for `CC1CCC2C(CCCc3ccc(Cl)cc3)C(=O)OC3OC4(C)CCC1C32OO4` (centres unmarked) [Compound 72] it is 11.9 µM; for `COc1ccc(CCCC2C(=O)OC3OC4(C)CCC5C(C)CCC2C35OO4)cc1` (centres unmarked) [Compound 73] it is 12 µM.
Same read-out and setting: the same measure for `CC1CCC2C(CCCc3cc(F)cc(F)c3)C(=O)OC3OC4(C)CCC1C32OO4` (centres unmarked) [Compound 74]: 49.7 µM.
As to `CC1CCC2C(C)COC3OC4(C)CCC1C32OO4` (centres unmarked) [Compound 94], under setting [1], the IC50 turned out to be 46.6 µM.
The same measure, in the same setting: the figure for `CC1CCC2C(CCCc3ccc(Cl)cc3)COC3OC4(C)CCC1C32OO4` (centres unmarked) [Compound 95] is 4.9 µM.
Turning to `CC1CCC2C(CCCc3cccc(Cl)c3)COC3OC4(C)CCC1C32OO4` (centres unmarked) [Compound 96], under setting [1], the IC50 amounted to 3.7 µM.
As for `CC1CCC2C(CCCc3ccc(Cl)c(Cl)c3)COC3OC4(C)CCC1C32OO4` (centres unmarked) [Compound 97], the IC50 under setting [1] worked out at 2.3 µM.
Turning to `CC1CCC2C(CCCc3ccc(C(F)(F)F)cc3)COC3OC4(C)CCC1C32OO4` (centres unmarked) [Compound 98], the IC50 under setting [1] worked out at 1.8 µM.
On the same count and under the same terms, the figure for `COc1ccc(CCCC2COC3OC4(C)CCC5C(C)CCC2C35OO4)cc1` (centres unmarked) [Compound 99] is 17.4 µM; for `CC1CCC2C(CCCc3cc(F)cc(F)c3)COC3OC4(C)CCC1C32OO4` (centres unmarked) [Compound 100] it is 11 µM; for `CC1CCC2C(CCCc3cc(C(F)(F)F)cc(C(F)(F)F)c3)COC3OC4(C)CCC1C32OO4` (centres unmarked) [Compound 101] it is 0.3 µM.
In the case of `CCCCN1C(=O)CC2CCC(C)C3CCC4(C)OOC23C1O4` (centres unmarked) [Compound 105], the concentration for half-maximal inhibition (IC50) under setting [3] is 44.5 µM.
Still for that read-out and setting: the figure for `CC1CCC2CC(=O)N(CC(=O)OC(C)(C)C)C3OC4(C)CCC1C23OO4` (centres unmarked) [Compound 107] is 27.5 µM; for `CC1CCC2CC(=O)N(Cc3ccccc3)C3OC4(C)CCC1C23OO4` (centres unmarked) [Compound 108] it is 56 µM.
Still for that read-out and setting: the same measure for `CC1CCC2CC(=O)N(Cc3ccc(Cl)cc3)C3OC4(C)CCC1C23OO4` (centres unmarked) [Compound 109]: 25.5 µM; for `CC1CCC2CC(=O)N(CCc3ccccc3)C3OC4(C)CCC1C23OO4` (centres unmarked) [Compound 110]: 32.3 µM.
With `C[C@@H]1CC[C@@H]([C@@H](C)CO)[C@@]23C=C[C@@](C)(CC[C@@H]12)OO3` [Compound 112], under “Leishmania donovani”, the IC50 was found to be 131 µM.
For the compound `N=C(N)c1ccc(OCCCCCOc2ccc(C(=N)N)cc2)cc1` [Pentamidine, reference compound], the IC50 (Leishmania donovani, read-out: Antileishmanial activity IC50) came to 1.35 µM.
